In PMC11310079, “Commensal production of a broad-spectrum and short-lived antimicrobial peptide polyene eliminates nasal Staphylococcus aureus” (Nature Microbiology, 2023):

How the values were obtained:
S. aureus USA300 JE2 = experiment: Determination of the IC (miniaturized agar diffusion assay); assay type: cell-based, Staphylococcus aureus; conditions: agar diffusion on inoculated TSA, 24 h 37 °C dark; IC from inhibited agar volume
Experimental: (§1) Instead, a miniaturized assay was developed. Molten TSA, kept below 42 °C, was inoculated with different test strains at an OD600 of 0.00125. Then, 17.5 ml was poured into Petri dishes, resulting in agar layers of ~3.16 mm thickness. After solidification, a cork borer was used to punch wells of 4-mm diameter into the agar. Thirty-five microlitres of purified epifadin in DMSO–PA (2.4 µg, 1.2 µg, 0.6 µg, 0.3 µg, 0.15 µg and 0.075 µg) was pipetted into the wells, and agar plates were incubated for 24 h at 37 °C in the dark. Diameters of the zones of inhibition were measured and the volume containing the inhibitory epifadin concentration was calculated, using the following formula for cylinder volume: Vc=πxr^2xhVc=cylindervolumeVi=πrz2xha−(πrw2xha)Vi=inhibitedvolumerz2=radius(diameter/2)zoneofinhibitionrw2=radius(diameter/2)ofwellha=heightofagar
(§2) The volume of agar showing inhibition of the test strain was then correlated with the included amount of epifadin, and the epifadin concentration necessary to inhibit test strain growth in a 1 ml volume was calculated to yield IC values. If, for example, 2.4 µg of epifadin lead to an inhibited volume of 480 µl, to inhibit a volume of 1 ml, 5 µg epifadin is needed, which corresponds to an IC of 5 μg ml^−1. These calculations were conducted for the lowest amount of epifadin that led to a zone of inhibition to minimize the necessary epifadin amounts and the calculation error due to the gradient within the inhibition zone. As a control, the same assay was used to determine the IC for vancomycin, daptomycin and lugdunin under these conditions.

S. aureus USA300LAC = experiment: as above; assay type: cell-based, Staphylococcus aureus; conditions: agar diffusion on inoculated TSA, 35 µl in 4-mm wells, 24 h 37 °C dark; IC from inhibited agar volume at lowest active amount
Experimental: as §1, §2

S. aureus USA300 LAC = experiment: Stability analysis of epifadin (bioactivity by agar diffusion after incubation); assay type: physicochemical, Staphylococcus aureus; conditions: 37 °C, pH 7, light, r4-r10 = 0-6 h
Experimental: Fig. 2 High instability of epifadin under in vivo-like conditions. S. epidermidis IVK83 culture supernatants containing epifadin were precipitated with HCl, freeze-dried and extracted with DMSO. This extract was diluted in TSB, incubated for the indicated time periods with constant shaking under the respective conditions and subsequently tested for activity towards S. aureus USA300 LAC. a, Stability of epifadin compared with other antibacterial agents under standard laboratory conditions (37 °C, pH 7, laboratory light exposure). b, In vivo-like conditions with laboratory light exposure at pH 7 (nasal condition) or pH 5.5 (skin condition) and reduced temperatures; incubation of epifadin under exclusion from light enabled further purification and activity determination. Conditions at pH 7, 37 °C and 0 h were used as reference for 100% stability. Data shown represent the mean ± s.d. of three independent experiments. Source data
The effect of different incubation conditions on the bioactivity of epifadin was analysed by agar diffusion assays on lawns of the sensitive indicator strain S. aureus USA300 LAC. To this end, liquid TSA was inoculated with an overnight culture of USA300 at an OD600 of 0.00125. After solidification of the agar, a cork borer was used to punch wells into the agar with 5 mm diameter. TSB media with 50 mM sodium citrate (pH 5 and 6) or 50 mM tris(hydroxymethyl)aminomethane (pH 8 and 9) were prepared. Epifadin-containing precipitate was dissolved in DMSO (12 mg ml^−1), and insoluble particles were removed by centrifugation. The supernatant was added to the prepared TSB media at a final concentration of 750 µg precipitate per millilitre (37.5 µg in 50 µl). Media were incubated for 6 h at 21 °C, 30 °C or 37 °C with or without laboratory light exposure and constant shaking at 500 rpm in a thermomixer (Eppendorf). As controls, 70 µg ml^−1 (3.5 µg in 50 µl) lugdunin, 24 µg ml^−1 (1.2 µg in 50 µl) gallidermin and 100 µg ml^−1 (5 µg in 50 µl) nisin were used. At different timepoints, 50 µl of each sample was pipetted into the wells of the agar plates. After incubation at 37 °C overnight, zones of inhibition were analysed with ImageJ software (version 1.8.0_112).

`CN[C@H](CC(C)C)C(=O)N[C@H]1C(=O)N[C@@H](CC(N)=O)C(=O)N[C@H]2C(=O)N[C@H]3C(=O)N[C@H](C(=O)N[C@H](C(=O)O)c4cc(O)cc(O)c4-c4cc3ccc4O)[C@H](O)c3ccc(c(Cl)c3)Oc3cc2cc(c3O[C@@H]2O[C@H](CO)[C@@H](O)[C@H](O)[C@H]2O[C@H]2C[C@](C)(N)[C@H](O)[C@H](C)O2)Oc2ccc(cc2Cl)[C@H]1O` [Vancomycin] was tested, and the “IC*” value (S. aureus USA300 JE2) was 3.7 µg/mL and the “IC*” value (S. aureus USA300LAC) was 6.0 µg/mL.
In the case of Gallidermin, the “stability (remaining antimicrobial activity, 0 h = 100%)” value (S. aureus USA300 LAC; gallidermin 24 µg/ml in TSB, experiment 1 of 3, after 1 h incubation) is reported as 98.31%, the “stability (remaining antimicrobial activity, 0 h = 100%)” value (S. aureus USA300 LAC; gallidermin 24 µg/ml in TSB, experiment 1 of 3, after 2 h incubation) is reported as 98.34% and the “stability (remaining antimicrobial activity, 0 h = 100%)” value (S. aureus USA300 LAC; gallidermin 24 µg/ml in TSB, experiment 1 of 3, after 3 h incubation) is reported as 97.66%. For the same compound, the “stability (remaining antimicrobial activity, 0 h = 100%)” value (S. aureus USA300 LAC; gallidermin 24 µg/ml in TSB, experiment 1 of 3, after 4 h incubation) was 104.98%, the “stability (remaining antimicrobial activity, 0 h = 100%)” value (S. aureus USA300 LAC; gallidermin 24 µg/ml in TSB, experiment 1 of 3, after 5 h incubation) was 100.66% and the “stability (remaining antimicrobial activity, 0 h = 100%)” value (S. aureus USA300 LAC; gallidermin 24 µg/ml in TSB, experiment 1 of 3, after 6 h incubation) was 98.44%. The “stability (remaining antimicrobial activity, 0 h = 100%)” value (S. aureus USA300 LAC; gallidermin 24 µg/ml in TSB, experiment 2 of 3, after 1 h incubation) was 97.85%, the “stability (remaining antimicrobial activity, 0 h = 100%)” value (S. aureus USA300 LAC; gallidermin 24 µg/ml in TSB, experiment 2 of 3, after 2 h incubation) was 106.35% and the “stability (remaining antimicrobial activity, 0 h = 100%)” value (S. aureus USA300 LAC; gallidermin 24 µg/ml in TSB, experiment 2 of 3, after 3 h incubation) was 110.68%. The “stability (remaining antimicrobial activity, 0 h = 100%)” value (S. aureus USA300 LAC; gallidermin 24 µg/ml in TSB, experiment 2 of 3, after 4 h incubation) was 102.27%, the “stability (remaining antimicrobial activity, 0 h = 100%)” value (S. aureus USA300 LAC; gallidermin 24 µg/ml in TSB, experiment 2 of 3, after 5 h incubation) was 103.29% and the “stability (remaining antimicrobial activity, 0 h = 100%)” value (S. aureus USA300 LAC; gallidermin 24 µg/ml in TSB, experiment 2 of 3, after 6 h incubation) was 108.21%. For the same compound, the “stability (remaining antimicrobial activity, 0 h = 100%)” value (S. aureus USA300 LAC; gallidermin 24 µg/ml in TSB, experiment 3 of 3, after 1 h incubation) was 100.01%, the “stability (remaining antimicrobial activity, 0 h = 100%)” value (S. aureus USA300 LAC; gallidermin 24 µg/ml in TSB, experiment 3 of 3, after 2 h incubation) was 96.91% and the “stability (remaining antimicrobial activity, 0 h = 100%)” value (S. aureus USA300 LAC; gallidermin 24 µg/ml in TSB, experiment 3 of 3, after 3 h incubation) was 95.85%. The “stability (remaining antimicrobial activity, 0 h = 100%)” value (S. aureus USA300 LAC; gallidermin 24 µg/ml in TSB, experiment 3 of 3, after 4 h incubation) was 100.24%, the “stability (remaining antimicrobial activity, 0 h = 100%)” value (S. aureus USA300 LAC; gallidermin 24 µg/ml in TSB, experiment 3 of 3, after 5 h incubation) was 103.69% and the “stability (remaining antimicrobial activity, 0 h = 100%)” value (S. aureus USA300 LAC; gallidermin 24 µg/ml in TSB, experiment 3 of 3, after 6 h incubation) was 91.59%.
For Nisin, the “stability (remaining antimicrobial activity, 0 h = 100%)” value (S. aureus USA300 LAC; nisin 100 µg/ml in TSB, experiment 1 of 3, after 1 h incubation) was 97.92%, the “stability (remaining antimicrobial activity, 0 h = 100%)” value (S. aureus USA300 LAC; nisin 100 µg/ml in TSB, experiment 1 of 3, after 2 h incubation) was 95.64% and the “stability (remaining antimicrobial activity, 0 h = 100%)” value (S. aureus USA300 LAC; nisin 100 µg/ml in TSB, experiment 1 of 3, after 3 h incubation) was 93.46%. The “stability (remaining antimicrobial activity, 0 h = 100%)” value (S. aureus USA300 LAC; nisin 100 µg/ml in TSB, experiment 1 of 3, after 4 h incubation) was 95.48%, the “stability (remaining antimicrobial activity, 0 h = 100%)” value (S. aureus USA300 LAC; nisin 100 µg/ml in TSB, experiment 1 of 3, after 5 h incubation) was 97.51% and the “stability (remaining antimicrobial activity, 0 h = 100%)” value (S. aureus USA300 LAC; nisin 100 µg/ml in TSB, experiment 1 of 3, after 6 h incubation) was 85.14%. For the same compound, the “stability (remaining antimicrobial activity, 0 h = 100%)” value (S. aureus USA300 LAC; nisin 100 µg/ml in TSB, experiment 2 of 3, after 1 h incubation) was 104.00%, the “stability (remaining antimicrobial activity, 0 h = 100%)” value (S. aureus USA300 LAC; nisin 100 µg/ml in TSB, experiment 2 of 3, after 2 h incubation) was 100.36% and the “stability (remaining antimicrobial activity, 0 h = 100%)” value (S. aureus USA300 LAC; nisin 100 µg/ml in TSB, experiment 2 of 3, after 3 h incubation) was 102.17%. For the same compound, the “stability (remaining antimicrobial activity, 0 h = 100%)” value (S. aureus USA300 LAC; nisin 100 µg/ml in TSB, experiment 2 of 3, after 4 h incubation) was 101.46%, the “stability (remaining antimicrobial activity, 0 h = 100%)” value (S. aureus USA300 LAC; nisin 100 µg/ml in TSB, experiment 2 of 3, after 5 h incubation) was 105.85% and the “stability (remaining antimicrobial activity, 0 h = 100%)” value (S. aureus USA300 LAC; nisin 100 µg/ml in TSB, experiment 2 of 3, after 6 h incubation) was 97.13%. For the same compound, the “stability (remaining antimicrobial activity, 0 h = 100%)” value (S. aureus USA300 LAC; nisin 100 µg/ml in TSB, experiment 3 of 3, after 1 h incubation) was 107.69%, the “stability (remaining antimicrobial activity, 0 h = 100%)” value (S. aureus USA300 LAC; nisin 100 µg/ml in TSB, experiment 3 of 3, after 2 h incubation) was 105.39% and the “stability (remaining antimicrobial activity, 0 h = 100%)” value (S. aureus USA300 LAC; nisin 100 µg/ml in TSB, experiment 3 of 3, after 4 h incubation) was 113.09%. The “stability (remaining antimicrobial activity, 0 h = 100%)” value (S. aureus USA300 LAC; nisin 100 µg/ml in TSB, experiment 3 of 3, after 5 h incubation) was 97.70% and the “stability (remaining antimicrobial activity, 0 h = 100%)” value (S. aureus USA300 LAC; nisin 100 µg/ml in TSB, experiment 3 of 3, after 6 h incubation) was 77.36%.
